Data reported in the supplement of paper PMC10627819.

Assays:
S. pneumoniae D39V [1] = assay: fitness (endpoint OD595 vs no drug) (fraction); higher = more growth
How it was run: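 Fitness was measured as bacterial growth in 384-well plates inoculated at OD595 0.01 (30 µl, or 55 µl for S. pneumoniae). Media were TSB, LB Lennox or CY, at 37 °C. OD595 was read every 30 min for 14 h and background-subtracted against the first reading. Fitness is OD595 at the transition into stationary phase divided by the robust mean of no-drug control wells, capped at 1.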

B. subtilis 168 = assay: Bliss interaction score (quartile over a dose matrix) (fitness difference); higher = more antagonism (negative = synergy)
How it was run: (§1)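 The Bliss score was calculated by subtracting the expected fitness, the product of single-drug values, from the observed fitness. OD595 at entry into stationary phase, over the plate's robust no-drug mean and capped at 1, served as the fitness readout. Single-drug values were inferred from combination data, and scores are summarised by quartiles across technical, biological and donor/recipient replicates.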

S. aureus DSM 20231 = assay: as above
How it was run: as §1

S. aureus Newman = assay: as above
How it was run: as §1

S. pneumoniae D39V [2] = assay: as above
How it was run: as §1
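Throughout, for Bliss interaction score (quartile over a dose matrix): first quartile when negative (synergy) and third quartile when positive (antagonism).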

Row | Structure (SMILES) | fitness (S. pneumoniae D39V [1]; first compound 1 µg/mL, partner 1.073 µg/mL) | fitness (S. pneumoniae D39V [1]; first compound 1 µg/mL, partner 1.25 µg/mL) | fitness (S. pneumoniae D39V [1]; first compound 1 µg/mL, partner 2.145 µg/mL) | fitness (S. pneumoniae D39V [1]; first compound 1 µg/mL, partner 2.5 µg/mL) | fitness (S. pneumoniae D39V [1]; first compound 1 µg/mL, partner 4.29 µg/mL) | fitness (S. pneumoniae D39V [1]; first compound 1 µg/mL, partner 5 µg/mL) | fitness (S. pneumoniae D39V [1]; first compound 2 µg/mL, partner 1.073 µg/mL) | fitness (S. pneumoniae D39V [1]; first compound 2 µg/mL, partner 1.25 µg/mL) | fitness (S. pneumoniae D39V [1]; first compound 2 µg/mL, partner 2.145 µg/mL) | fitness (S. pneumoniae D39V [1]; first compound 2 µg/mL, partner 2.5 µg/mL) | fitness (S. pneumoniae D39V [1]; first compound 2 µg/mL, partner 4.29 µg/mL) | fitness (S. pneumoniae D39V [1]; first compound 2 µg/mL, partner 5 µg/mL) | fitness (S. pneumoniae D39V [1]; first compound 4 µg/mL, partner 1.073 µg/mL) | fitness (S. pneumoniae D39V [1]; first compound 4 µg/mL, partner 1.25 µg/mL) | fitness (S. pneumoniae D39V [1]; first compound 4 µg/mL, partner 2.145 µg/mL) | fitness (S. pneumoniae D39V [1]; first compound 4 µg/mL, partner 2.5 µg/mL) | fitness (S. pneumoniae D39V [1]; first compound 4 µg/mL, partner 4.29 µg/mL) | fitness (S. pneumoniae D39V [1]; first compound 4 µg/mL, partner 5 µg/mL) | Bliss interaction score (B. subtilis 168) | Bliss interaction score (S. aureus DSM 20231) | Bliss interaction score (S. aureus Newman) | Bliss interaction score (S. pneumoniae D39V [2]) | fitness (S. pneumoniae D39V [1]; first compound 1 µg/mL, partner 1.285 µg/mL) | fitness (S. pneumoniae D39V [1]; first compound 1 µg/mL, partner 2 µg/mL) | fitness (S. pneumoniae D39V [1]; first compound 1 µg/mL, partner 2.57 µg/mL) | fitness (S. pneumoniae D39V [1]; first compound 1 µg/mL, partner 4 µg/mL) | fitness (S. pneumoniae D39V [1]; first compound 1 µg/mL, partner 5.14 µg/mL, one replicate) | fitness (S. pneumoniae D39V [1]; first compound 1 µg/mL, partner 8 µg/mL) | fitness (S. pneumoniae D39V [1]; first compound 2 µg/mL, partner 1.285 µg/mL) | fitness (S. pneumoniae D39V [1]; first compound 2 µg/mL, partner 2 µg/mL) | fitness (S. pneumoniae D39V [1]; first compound 2 µg/mL, partner 2.57 µg/mL) | fitness (S. pneumoniae D39V [1]; first compound 2 µg/mL, partner 4 µg/mL) | fitness (S. pneumoniae D39V [1]; first compound 2 µg/mL, partner 5.14 µg/mL, one replicate) | fitness (S. pneumoniae D39V [1]; first compound 2 µg/mL, partner 8 µg/mL) | fitness (S. pneumoniae D39V [1]; first compound 4 µg/mL, partner 1.285 µg/mL) | fitness (S. pneumoniae D39V [1]; first compound 4 µg/mL, partner 2 µg/mL) | fitness (S. pneumoniae D39V [1]; first compound 4 µg/mL, partner 2.57 µg/mL) | fitness (S. pneumoniae D39V [1]; first compound 4 µg/mL, partner 4 µg/mL) | fitness (S. pneumoniae D39V [1]; first compound 4 µg/mL, partner 5.14 µg/mL, one replicate) | fitness (S. pneumoniae D39V [1]; first compound 4 µg/mL, partner 8 µg/mL)
1 | CCCCCCCCCC(=O)N[C@@H](Cc1c[nH]c2ccccc12)C(=O)N[C@H](CC(N)=O)C(=O)N[C@@H](CC(=O)O)C(=O)N[C@@H]1C(=O)NCC(=O)N[C@@H](CCCN)C(=O)N[C@@H](CC(=O)O)C(=O)N[C@H](C)C(=O)N[C@@H](CC(=O)O)C(=O)NCC(=O)N[C@H](CO)C(=O)N[C@@H]([C@H](C)CC(=O)O)C(=O)N[C@@H](CC(=O)c2ccccc2N)C(=O)O[C@@H]1C [Daptomycin] + Clc1ccc(COC(Cn2ccnc2)c2ccc(Cl)cc2Cl)c(Cl)c1 [Miconazole] | 0.962 | 0.922 | 0.967 | 0.913 | 0.841 | 0.898 | 0.984 | 0.888 | 0.981 | 0.896 | 0.881 | 0.86 | ≥ 1 | 0.847 | ≥ 1 | 0.813 | 0.882 | 0.836 | 0.0988 | -0.0305 | -0.0424 | 0.0797 | – | – | – | – | – | – | – | – | – | – | – | – | – | – | – | – | – | –
2 | CCCCCCCCCC(=O)N[C@@H](Cc1c[nH]c2ccccc12)C(=O)N[C@H](CC(N)=O)C(=O)N[C@@H](CC(=O)O)C(=O)N[C@@H]1C(=O)NCC(=O)N[C@@H](CCCN)C(=O)N[C@@H](CC(=O)O)C(=O)N[C@H](C)C(=O)N[C@@H](CC(=O)O)C(=O)NCC(=O)N[C@H](CO)C(=O)N[C@@H]([C@H](C)CC(=O)O)C(=O)N[C@@H](CC(=O)c2ccccc2N)C(=O)O[C@@H]1C [Daptomycin] + O=C1CN(/N=C/c2ccc([N+](=O)[O-])o2)C(=O)N1 [Nitrofurantoin] | – | – | – | – | – | – | – | – | – | – | – | – | – | – | – | – | – | – | -0.0871 | 0.0921 | 0.0519 | 0.0606 | 0.981 | 0.883 | 0.946 | 0.788 | 0.839 | 0.338 | 0.943 | 0.85 | 0.904 | 0.763 | 0.82 | 0.327 | 0.948 | 0.808 | 0.948 | 0.704 | 0.883 | 0.34
